“Also recorded” adds a separate entry of the source.
Experiments:
influenza virus (x31) = type: in vivo, mice
[1] = tested on: non-neurotropic, non-lethal influenza virus (x31 strain); type: in vivo, mice; conditions: accelerating rod, three consecutive runs

## Nc1ccncc1 [4-AP, 4-aminopyridine]
Influenza virus (x31); […], 4-AP 1.5 mg/kg, corticosteroid 1 mg/kg, N=7/group
  mice surviving until at least Day 14 (survivors/treated): 7/7
Influenza virus (x31); mouse, in vivo
  influenza-induced weight loss (in words): lesser weight loss; also recorded: attenuated
  survival of infected ATM KO mice (in words): complete rescue from death
[1]
  animals showing a decreased time to fall on the rotarod: 27%

Reference: US20260216154A1, “POTASSIUM CHANNEL BLOCKERS OR DERIVATIVES THEREOF FOR PREVENTING, ALLEVIATING, AND/OR TREATING MORBIDITY AND MORTALITY INDUCED BY PATHOGENS OR OTHER INDUCERS OF IMMUNE […]/OR EXCESS IMMUNE ACTIVATI” (University of Rochester, priority 2023, published 2026)
